PubChem BioAssay AID256 (DTP/NCI, 2004)
Inconclusive results and toxic doses are left out.

Tested on: CD2F1 mice, L1210 leukemia ip, survival T/C
Assay: NCI In Vivo Anticancer Drug Screen. Data for tumor model L1210 Leukemia (intraperitoneal) in CD2F1 (CDF1) mice
Conditions: higher = longer survival
In short: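 Activity against a transplanted murine tumor was judged by comparing the compound group with a vehicle group. The outcome in the treated animals was divided by that in the controls.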

[1] = endpoint: mean survival time, dose: 75.0 mg/kg/injection, schedule: Q01DX001 (ip), vehicle: saline
[2] = endpoint: mean survival time, dose: 150.0 mg/kg/injection, schedule: Q01DX001 (ip), vehicle: saline
[3] = endpoint: mean survival time, dose: 300.0 mg/kg/injection, schedule: Q01DX001 (ip), vehicle: saline
[4] = endpoint: mean survival time, dose: 25.0 mg/kg/injection, schedule: Q01DX009 (ip), vehicle: saline with Tween-80
[5] = endpoint: mean survival time, dose: 50.0 mg/kg/injection, schedule: Q01DX009 (ip), vehicle: saline with Tween-80
[6] = endpoint: mean survival time, dose: 100.0 mg/kg/injection, schedule: Q01DX009 (ip), vehicle: saline with Tween-80
[7] = endpoint: mean survival time, dose: 100.0 mg/kg/injection, schedule: Q04DX003 (ip), vehicle: saline with Tween-80
[8] = endpoint: mean survival time, dose: 200.0 mg/kg/injection, schedule: Q01DX009 (ip), vehicle: saline with Tween-80
[9] = endpoint: mean survival time, dose: 200.0 mg/kg/injection, schedule: Q04DX003 (ip), vehicle: saline with Tween-80
[10] = endpoint: mean survival time, dose: 400.0 mg/kg/injection, schedule: Q01DX009 (ip), vehicle: saline with Tween-80
[11] = endpoint: mean survival time, dose: 400.0 mg/kg/injection, schedule: Q04DX003 (ip), vehicle: saline with Tween-80

In the case of `c1cc[n+](Cc2ccc3ccccc3c2)c(C2OCCO2)c1`, the T/C (endpoint: mean survival time, dose: 5.0 mg/kg/injection, schedule: Q01DX009 (ip), vehicle: saline) is reported as 102 % of control, the T/C (endpoint: mean survival time, dose: 10.0 mg/kg/injection, schedule: Q01DX009 (ip), vehicle: saline) is reported as 102 % of control and the T/C (endpoint: mean survival time, dose: 20.0 mg/kg/injection, schedule: Q01DX009 (ip), vehicle: saline) is reported as 105 % of control.
In the case of `O=C(NCCN1CCCCC1)C(O)(C1CCCCC1)C1CCCCC1`, the T/C [1] is reported as 97 % of control, the T/C [2] is reported as 97 % of control and the T/C [3] is reported as 97 % of control.
With `CC(=O)C(N=Nc1cccc2c1C(=O)c1ccccc1C2=O)C(=O)Nc1ccccc1C` (centres undefined) the T/C [1] was 98 % of control, the T/C [2] was 93 % of control and the T/C [3] was 96 % of control.
`Oc1ccccc1/C=N/NC(=S)NC1CC2C=CC1C2` (centres undefined) was tested, and the T/C (endpoint: mean survival time, dose: 12.5 mg/kg/injection, schedule: Q01DX009 (ip), vehicle: olive oil, sesame oil, peanut oil) was 98 % of control, the T/C (endpoint: mean survival time, dose: 25.0 mg/kg/injection, schedule: Q01DX009 (ip), vehicle: olive oil, sesame oil, peanut oil) was 97 % of control and the T/C (endpoint: mean survival time, dose: 50.0 mg/kg/injection, schedule: Q01DX009 (ip), vehicle: olive oil, sesame oil, peanut oil) was 98 % of control. For the same compound, the T/C (endpoint: mean survival time, dose: 100.0 mg/kg/injection, schedule: Q01DX009 (ip), vehicle: olive oil, sesame oil, peanut oil) was 94 % of control, the T/C (endpoint: mean survival time, dose: 200.0 mg/kg/injection, schedule: Q01DX009 (ip), vehicle: olive oil, sesame oil, peanut oil) was 98 % of control and the T/C (endpoint: mean survival time, dose: 400.0 mg/kg/injection, schedule: Q01DX009 (ip), vehicle: olive oil, sesame oil, peanut oil) was 100 % of control.
For `CCCCNC(C)(C)C(SSSC(c1ccco1)C(C)(C)NCCCC)c1ccco1` (centres undefined), the T/C (endpoint: mean survival time, dose: 12.5 mg/kg/injection, schedule: Q01DX009 (ip), vehicle: saline with Tween-80) was 102 % of control, the T/C [4] was 96 % of control and the T/C [5] was 98 % of control.
`NCc1cccc(-c2nc3ncnc(N)c3[nH]2)c1` was tested, and the T/C (endpoint: mean survival time, dose: 50.0 mg/kg/injection, schedule: Q01DX009 (ip), vehicle: saline) was 101 % of control and the T/C (endpoint: mean survival time, dose: 100.0 mg/kg/injection, schedule: Q01DX009 (ip), vehicle: saline) was 105 % of control.
With `O=C(COc1ccc(Cl)cc1)C1CSc2ccc(Cl)cc21` (centres undefined) the T/C [6] was 88 % of control, the T/C [7] was 95 % of control and the T/C [8] was 91 % of control. The T/C [9] was 92 % of control, the T/C [10] was 89 % of control and the T/C [11] was 88 % of control.
In the case of `O=C(Nc1ccccc1C(F)(F)F)Nc1cccc2ccccc12`, the T/C [7] is reported as 95 % of control, the T/C [9] is reported as 104 % of control and the T/C [11] is reported as 95 % of control.
With `Cc1cccc(/C=N/OCCC(C)C)n1` the T/C [5] was 102 % of control, the T/C [6] was 96 % of control and the T/C [7] was 93 % of control. For the same compound, the T/C [8] was 102 % of control and the T/C [9] was 89 % of control.
For `CC[N+](CC)(CCOc1ccc(C(C)(C)CC(C)(C)C)cc1)Cc1ccccc1`, the T/C (endpoint: mean survival time, dose: 5.0 mg/kg/injection, schedule: Q04DX003 (ip), vehicle: saline) was 102 % of control.
With `[I][Pt+2][I].[NH-]CC1CCCC[N-]1` (centres undefined) the T/C (endpoint: mean survival time, dose: 3.13 mg/kg/injection, schedule: Q04DX003 (ip), vehicle: distilled water + Tween-80) was 98 % of control, the T/C (endpoint: mean survival time, dose: 6.25 mg/kg/injection, schedule: Q04DX003 (ip), vehicle: distilled water + Tween-80) was 95 % of control and the T/C (endpoint: mean survival time, dose: 12.5 mg/kg/injection, schedule: Q04DX003 (ip), vehicle: distilled water + Tween-80) was 95 % of control. The T/C (endpoint: mean survival time, dose: 25.0 mg/kg/injection, schedule: Q04DX003 (ip), vehicle: distilled water + Tween-80) was 104 % of control and the T/C (endpoint: mean survival time, dose: 50.0 mg/kg/injection, schedule: Q04DX003 (ip), vehicle: distilled water + Tween-80) was 98 % of control.
For `O=C=Nc1ccc(N=Nc2ccccc2)cc1`, the T/C [4] was 89 % of control, the T/C [5] was 88 % of control and the T/C (endpoint: mean survival time, dose: 100.0 mg/kg/injection, schedule: Q01DX001 (ip), vehicle: saline with Tween-80) was 95 % of control. For the same compound, the T/C [6] was 98 % of control and the T/C (endpoint: mean survival time, dose: 400.0 mg/kg/injection, schedule: Q01DX001 (ip), vehicle: saline with Tween-80) was 90 % of control.
`NC1CCCCC1N.O=C1C=C/C(=C(/c2ccc(O)c(Br)c2)c2ccccc2S(=O)(=O)[O-])C=C1Br.O=C1C=C/C(=C(/c2ccc(O)c(Br)c2)c2ccccc2S(=O)(=O)[O-])C=C1Br.[Pt+4]` was tested, and the T/C (endpoint: median survival time, dose: 3.12 mg/kg/injection, schedule: Q04DX003 (ip), vehicle: saline) was 175 % of control, the T/C (endpoint: median survival time, dose: 6.25 mg/kg/injection, schedule: Q04DX003 (ip), vehicle: saline) was 219 % of control and the T/C (endpoint: median survival time, dose: 12.5 mg/kg/injection, schedule: Q04DX003 (ip), vehicle: saline) was 239 % of control. For the same compound, the T/C (endpoint: median survival time, dose: 25.0 mg/kg/injection, schedule: Q04DX003 (ip), vehicle: saline) was 329 % of control.
In the case of `O=[N+]([O-])c1ccc(OCCBr)cc1`, the T/C (endpoint: mean survival time, dose: 100.0 mg/kg/injection, schedule: Q01DX009 (ip), vehicle: other) is reported as 91 % of control, the T/C (endpoint: mean survival time, dose: 200.0 mg/kg/injection, schedule: Q01DX009 (ip), vehicle: other) is reported as 98 % of control and the T/C (endpoint: mean survival time, dose: 400.0 mg/kg/injection, schedule: Q01DX009 (ip), vehicle: other) is reported as 94 % of control.
For `CCCCCCCN(CCCCCCC)CC(O)c1cc2ccc(Br)cc2c2cccnc12` (centres undefined), the T/C [6] was 95 % of control and the T/C [8] was 92 % of control.
With `CC(=O)OCC1OC(n2nc(CBr)cc2C(N)=O)C(OC(C)=O)C(OC(C)=O)C1OC(C)=O` (centres undefined) the T/C (endpoint: mean survival time, dose: 12.5 mg/kg/injection, schedule: Q01DX005 (ip), vehicle: distilled water + Tween-80) was 104 % of control, the T/C (endpoint: mean survival time, dose: 25.0 mg/kg/injection, schedule: Q01DX005 (ip), vehicle: distilled water + Tween-80) was 96 % of control and the T/C (endpoint: mean survival time, dose: 50.0 mg/kg/injection, schedule: Q01DX005 (ip), vehicle: distilled water + Tween-80) was 98 % of control. For the same compound, the T/C (endpoint: mean survival time, dose: 100.0 mg/kg/injection, schedule: Q01DX005 (ip), vehicle: distilled water + Tween-80) was 92 % of control and the T/C (endpoint: mean survival time, dose: 200.0 mg/kg/injection, schedule: Q01DX005 (ip), vehicle: distilled water + Tween-80) was 93 % of control.
In the case of `C=CC1(C)CC(=O)C2(O)C(C)(O1)C(OC(C)=O)C(O)C1C(C)(C)CCC(O)C12C` (centres undefined), the T/C (endpoint: median survival time, dose: 4.0 mg/kg/injection, schedule: Q01DX005 (ip), vehicle: other) is reported as 98 % of control, the T/C (endpoint: median survival time, dose: 8.0 mg/kg/injection, schedule: Q01DX005 (ip), vehicle: other) is reported as 101 % of control and the T/C (endpoint: median survival time, dose: 16.0 mg/kg/injection, schedule: Q01DX005 (ip), vehicle: other) is reported as 93 % of control.
For `COC1=C(OC)C(=O)C(N(C)C)=C(CO)C1=O`, the T/C (endpoint: median survival time, dose: 15.0 mg/kg/injection, schedule: Q01DX005 (ip), vehicle: saline) was 102 % of control, the T/C (endpoint: median survival time, dose: 30.0 mg/kg/injection, schedule: Q01DX005 (ip), vehicle: saline) was 100 % of control and the T/C (endpoint: median survival time, dose: 60.0 mg/kg/injection, schedule: Q01DX005 (ip), vehicle: saline) was 103 % of control. The T/C (endpoint: median survival time, dose: 120.0 mg/kg/injection, schedule: Q01DX005 (ip), vehicle: saline) was 107 % of control.
With `[CH3][Pb]([CH3])([CH3])[Cl]` the T/C (endpoint: mean survival time, dose: 1.56 mg/kg/injection, schedule: Q01DX009 (ip), vehicle: saline) was 97 % of control, the T/C (endpoint: mean survival time, dose: 1.56 mg/kg/injection, schedule: Q04DX002 (ip), vehicle: saline) was 101 % of control and the T/C (endpoint: mean survival time, dose: 3.13 mg/kg/injection, schedule: Q01DX009 (ip), vehicle: saline) was 87 % of control. The T/C (endpoint: mean survival time, dose: 3.13 mg/kg/injection, schedule: Q04DX002 (ip), vehicle: saline) was 108 % of control, the T/C (endpoint: mean survival time, dose: 6.25 mg/kg/injection, schedule: Q04DX002 (ip), vehicle: saline) was 92 % of control and the T/C (endpoint: mean survival time, dose: 12.5 mg/kg/injection, schedule: Q04DX002 (ip), vehicle: saline) was 93 % of control.
With `CCOC(=O)C(=CN1CCCCC1)C(=O)OCC` the T/C [6] was 92 % of control, the T/C [8] was 94 % of control and the T/C [10] was 96 % of control.
With `CC1=C(C)CC([P+](c2ccccc2)(c2ccccc2)c2ccccc2)CC1` (centres undefined) the T/C (endpoint: mean survival time, dose: 6.25 mg/kg/injection, schedule: Q01DX001 (ip), vehicle: saline with Tween-80) was 98 % of control, the T/C (endpoint: mean survival time, dose: 12.5 mg/kg/injection, schedule: Q01DX001 (ip), vehicle: saline with Tween-80) was 90 % of control and the T/C (endpoint: mean survival time, dose: 25.0 mg/kg/injection, schedule: Q01DX001 (ip), vehicle: saline with Tween-80) was 94 % of control.
For `COc1ccc(Cc2cncc3cc(O)c(OC)cc23)cc1O`, the T/C (endpoint: mean survival time, dose: 100.0 mg/kg/injection, schedule: Q01DX001 (ip), vehicle: saline) was 102 % of control, the T/C (endpoint: mean survival time, dose: 200.0 mg/kg/injection, schedule: Q01DX001 (ip), vehicle: saline) was 96 % of control and the T/C (endpoint: mean survival time, dose: 400.0 mg/kg/injection, schedule: Q01DX001 (ip), vehicle: saline) was 96 % of control.
`Cc1cc(C)c(O)c(C)c1.[Hg]` was tested, and the T/C (endpoint: mean survival time, dose: 1.56 mg/kg/injection, schedule: Q01DX001 (ip), vehicle: Klucel (hydroxypropylcellulose) (HPC)) was 98 % of control, the T/C (endpoint: mean survival time, dose: 3.13 mg/kg/injection, schedule: Q01DX001 (ip), vehicle: Klucel (hydroxypropylcellulose) (HPC)) was 92 % of control and the T/C (endpoint: mean survival time, dose: 6.25 mg/kg/injection, schedule: Q01DX001 (ip), vehicle: Klucel (hydroxypropylcellulose) (HPC)) was 103 % of control.
